Results on 35 compounds are retold here after ChEMBL document CHEMBL5291721, “A preclinical secondary pharmacology resource illuminates target-adverse drug reaction associations of marketed drugs” (Nat Commun, 2023).

For orientation: AC50 means the midpoint of the concentration-response curve, whichever way the signal moves. A high value points to activity only at high concentration.

Test [1] addresses Vascular endothelial growth factor receptor 2 (Homo sapiens, UniProt P35968). The class given is functional.
Test [2] concerns the target T1, 5-hydroxytryptamine receptor 1A (Homo sapiens, UniProt P08908).
T1 sequence (P08908 whole entry): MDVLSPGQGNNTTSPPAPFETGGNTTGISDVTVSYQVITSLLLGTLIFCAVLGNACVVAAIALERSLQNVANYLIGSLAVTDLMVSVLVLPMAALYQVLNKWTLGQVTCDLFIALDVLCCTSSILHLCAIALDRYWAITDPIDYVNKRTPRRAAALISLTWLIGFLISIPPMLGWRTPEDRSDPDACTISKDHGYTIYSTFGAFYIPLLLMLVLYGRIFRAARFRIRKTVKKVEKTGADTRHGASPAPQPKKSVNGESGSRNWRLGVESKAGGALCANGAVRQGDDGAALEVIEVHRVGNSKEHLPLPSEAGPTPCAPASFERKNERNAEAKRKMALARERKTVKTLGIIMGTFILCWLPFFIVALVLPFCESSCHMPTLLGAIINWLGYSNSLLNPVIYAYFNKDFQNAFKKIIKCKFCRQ
The class given is functional, cell-based.

Test [3] addresses Kappa-type opioid receptor (Homo sapiens, UniProt P41145).
The next test concerns the target Histamine H2 receptor (Homo sapiens, UniProt P25021). The class given is functional, cell-based.
Test [4] deals with T2, Alpha-2C adrenergic receptor (Homo sapiens, UniProt P18825).
T2 sequence (P18825 whole entry): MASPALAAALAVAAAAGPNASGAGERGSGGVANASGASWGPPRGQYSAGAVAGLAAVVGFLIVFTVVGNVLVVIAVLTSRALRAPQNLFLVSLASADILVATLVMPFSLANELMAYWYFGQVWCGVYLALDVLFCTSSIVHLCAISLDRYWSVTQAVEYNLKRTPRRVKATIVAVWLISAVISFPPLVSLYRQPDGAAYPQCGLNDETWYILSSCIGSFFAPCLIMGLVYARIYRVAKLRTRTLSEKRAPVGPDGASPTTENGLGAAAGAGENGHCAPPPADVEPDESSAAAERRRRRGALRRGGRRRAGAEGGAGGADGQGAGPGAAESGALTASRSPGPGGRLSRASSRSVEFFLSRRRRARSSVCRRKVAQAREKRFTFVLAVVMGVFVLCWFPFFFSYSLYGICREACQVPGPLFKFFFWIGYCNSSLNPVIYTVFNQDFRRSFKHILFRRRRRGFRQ
The class given is functional.

Test [5] has as its target T3, 5-hydroxytryptamine receptor 3A (Homo sapiens, UniProt P46098).
T3 sequence (P46098 whole entry): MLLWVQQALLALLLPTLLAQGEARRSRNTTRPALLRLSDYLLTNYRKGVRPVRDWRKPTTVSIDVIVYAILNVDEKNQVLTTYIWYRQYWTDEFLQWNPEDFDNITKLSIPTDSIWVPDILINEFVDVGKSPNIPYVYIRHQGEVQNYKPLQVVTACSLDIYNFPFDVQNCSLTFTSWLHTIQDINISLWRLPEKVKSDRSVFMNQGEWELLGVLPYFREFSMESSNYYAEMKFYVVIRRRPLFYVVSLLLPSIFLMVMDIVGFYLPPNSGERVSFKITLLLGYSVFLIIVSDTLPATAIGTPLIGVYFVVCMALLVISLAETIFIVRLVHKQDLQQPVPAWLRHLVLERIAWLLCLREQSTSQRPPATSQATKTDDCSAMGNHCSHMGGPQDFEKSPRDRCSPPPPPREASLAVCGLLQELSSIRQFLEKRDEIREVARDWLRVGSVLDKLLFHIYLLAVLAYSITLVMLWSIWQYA
The class given is functional.

Test [6] addresses T4, Type-1 angiotensin II receptor (Homo sapiens, UniProt P30556).
T4 sequence (P30556 whole entry): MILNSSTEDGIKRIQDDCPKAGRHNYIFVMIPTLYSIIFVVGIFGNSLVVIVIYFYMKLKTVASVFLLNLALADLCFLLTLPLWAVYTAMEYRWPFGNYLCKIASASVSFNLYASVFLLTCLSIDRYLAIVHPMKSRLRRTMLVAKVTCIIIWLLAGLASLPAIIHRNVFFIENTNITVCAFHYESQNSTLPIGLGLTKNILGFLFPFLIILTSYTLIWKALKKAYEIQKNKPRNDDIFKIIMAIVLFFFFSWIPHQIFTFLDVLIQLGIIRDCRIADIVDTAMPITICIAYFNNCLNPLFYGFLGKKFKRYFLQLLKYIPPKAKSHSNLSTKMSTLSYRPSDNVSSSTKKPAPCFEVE

The next test deals with Mu-type opioid receptor (Homo sapiens, UniProt P35372). Description: biochemical. In kind it is functional.
Test [7] addresses T5, Cholecystokinin receptor type A (Homo sapiens, UniProt P32238).
T5 sequence (P32238 whole entry): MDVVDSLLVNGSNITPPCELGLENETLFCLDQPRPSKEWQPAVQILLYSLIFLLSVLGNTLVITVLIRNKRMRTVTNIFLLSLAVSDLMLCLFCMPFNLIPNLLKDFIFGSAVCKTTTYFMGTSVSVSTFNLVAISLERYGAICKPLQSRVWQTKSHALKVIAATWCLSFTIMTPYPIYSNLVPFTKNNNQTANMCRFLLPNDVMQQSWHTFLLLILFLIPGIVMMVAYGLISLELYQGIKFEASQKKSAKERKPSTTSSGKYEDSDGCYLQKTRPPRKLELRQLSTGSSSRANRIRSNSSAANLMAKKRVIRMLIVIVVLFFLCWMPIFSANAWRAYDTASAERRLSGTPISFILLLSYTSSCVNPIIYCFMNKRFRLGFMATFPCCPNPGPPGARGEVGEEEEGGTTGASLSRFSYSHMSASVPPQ

A further test addresses Histamine H3 receptor (Homo sapiens, UniProt Q9Y5N1).

Vascular endothelial growth factor receptor 2, sequence (P35968 whole entry): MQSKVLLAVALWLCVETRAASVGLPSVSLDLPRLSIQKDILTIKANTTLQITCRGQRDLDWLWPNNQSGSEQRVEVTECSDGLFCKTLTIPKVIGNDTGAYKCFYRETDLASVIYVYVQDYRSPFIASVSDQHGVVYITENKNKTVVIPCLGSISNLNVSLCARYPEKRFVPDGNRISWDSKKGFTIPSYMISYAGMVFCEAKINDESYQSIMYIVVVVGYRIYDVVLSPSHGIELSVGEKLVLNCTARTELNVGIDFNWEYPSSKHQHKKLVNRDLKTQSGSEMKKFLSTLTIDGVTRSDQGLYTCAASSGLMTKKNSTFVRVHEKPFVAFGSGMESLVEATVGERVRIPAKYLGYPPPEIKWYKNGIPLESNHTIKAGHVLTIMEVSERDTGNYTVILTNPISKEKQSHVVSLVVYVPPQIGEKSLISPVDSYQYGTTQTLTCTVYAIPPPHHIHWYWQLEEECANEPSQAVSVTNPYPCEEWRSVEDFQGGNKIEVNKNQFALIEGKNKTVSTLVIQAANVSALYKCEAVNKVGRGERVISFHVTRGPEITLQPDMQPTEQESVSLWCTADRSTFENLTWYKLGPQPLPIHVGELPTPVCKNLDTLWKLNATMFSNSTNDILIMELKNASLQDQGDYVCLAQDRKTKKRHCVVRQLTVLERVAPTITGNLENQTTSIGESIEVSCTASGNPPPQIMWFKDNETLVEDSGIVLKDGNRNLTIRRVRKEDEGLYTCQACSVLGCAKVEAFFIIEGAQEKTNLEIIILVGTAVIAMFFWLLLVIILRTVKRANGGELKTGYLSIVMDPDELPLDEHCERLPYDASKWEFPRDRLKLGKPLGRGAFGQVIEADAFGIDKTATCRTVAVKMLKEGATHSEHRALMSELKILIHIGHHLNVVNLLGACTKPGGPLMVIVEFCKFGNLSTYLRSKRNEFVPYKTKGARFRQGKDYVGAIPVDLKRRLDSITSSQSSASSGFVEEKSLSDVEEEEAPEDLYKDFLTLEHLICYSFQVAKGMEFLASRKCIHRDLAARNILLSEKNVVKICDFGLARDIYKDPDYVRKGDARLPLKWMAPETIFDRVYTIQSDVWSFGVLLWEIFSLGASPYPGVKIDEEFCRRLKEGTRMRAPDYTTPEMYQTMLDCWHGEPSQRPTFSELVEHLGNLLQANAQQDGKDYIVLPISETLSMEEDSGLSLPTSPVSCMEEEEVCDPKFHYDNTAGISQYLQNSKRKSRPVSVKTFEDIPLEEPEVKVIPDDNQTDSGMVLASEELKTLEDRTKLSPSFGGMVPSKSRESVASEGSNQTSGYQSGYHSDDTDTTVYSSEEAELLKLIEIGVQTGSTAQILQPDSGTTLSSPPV
Histamine H2 receptor, sequence (P25021 whole entry): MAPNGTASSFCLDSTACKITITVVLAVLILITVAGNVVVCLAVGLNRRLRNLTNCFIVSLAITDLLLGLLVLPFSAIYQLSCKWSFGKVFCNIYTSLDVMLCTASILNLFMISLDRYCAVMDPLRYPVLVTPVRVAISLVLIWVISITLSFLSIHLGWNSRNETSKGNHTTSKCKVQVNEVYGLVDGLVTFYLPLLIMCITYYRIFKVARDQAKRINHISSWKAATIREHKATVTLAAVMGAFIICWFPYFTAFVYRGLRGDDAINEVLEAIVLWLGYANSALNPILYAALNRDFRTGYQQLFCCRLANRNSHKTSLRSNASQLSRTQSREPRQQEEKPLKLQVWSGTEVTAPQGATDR
Kappa-type opioid receptor, sequence (P41145 whole entry): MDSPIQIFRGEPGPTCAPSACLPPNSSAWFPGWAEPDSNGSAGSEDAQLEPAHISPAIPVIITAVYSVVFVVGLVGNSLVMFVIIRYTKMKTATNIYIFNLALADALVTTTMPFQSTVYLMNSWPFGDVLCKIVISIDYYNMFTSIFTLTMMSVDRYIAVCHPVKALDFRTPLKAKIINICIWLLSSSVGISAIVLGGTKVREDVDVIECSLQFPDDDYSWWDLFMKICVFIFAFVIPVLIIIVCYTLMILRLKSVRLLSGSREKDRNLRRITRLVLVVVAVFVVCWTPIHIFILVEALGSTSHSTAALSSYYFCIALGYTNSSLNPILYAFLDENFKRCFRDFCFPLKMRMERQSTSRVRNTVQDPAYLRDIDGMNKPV
Mu-type opioid receptor, sequence (P35372 whole entry): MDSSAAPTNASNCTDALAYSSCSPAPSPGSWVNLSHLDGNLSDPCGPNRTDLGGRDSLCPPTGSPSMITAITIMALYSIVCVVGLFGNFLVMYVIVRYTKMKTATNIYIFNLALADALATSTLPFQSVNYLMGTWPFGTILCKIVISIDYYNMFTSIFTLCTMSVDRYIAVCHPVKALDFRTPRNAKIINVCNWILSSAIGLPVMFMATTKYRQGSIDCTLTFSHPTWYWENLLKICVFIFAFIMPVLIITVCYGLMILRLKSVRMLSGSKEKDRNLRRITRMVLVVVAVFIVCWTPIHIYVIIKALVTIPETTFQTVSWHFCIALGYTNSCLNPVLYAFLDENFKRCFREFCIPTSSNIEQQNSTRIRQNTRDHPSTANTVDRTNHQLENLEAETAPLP
Histamine H3 receptor, sequence (Q9Y5N1 whole entry): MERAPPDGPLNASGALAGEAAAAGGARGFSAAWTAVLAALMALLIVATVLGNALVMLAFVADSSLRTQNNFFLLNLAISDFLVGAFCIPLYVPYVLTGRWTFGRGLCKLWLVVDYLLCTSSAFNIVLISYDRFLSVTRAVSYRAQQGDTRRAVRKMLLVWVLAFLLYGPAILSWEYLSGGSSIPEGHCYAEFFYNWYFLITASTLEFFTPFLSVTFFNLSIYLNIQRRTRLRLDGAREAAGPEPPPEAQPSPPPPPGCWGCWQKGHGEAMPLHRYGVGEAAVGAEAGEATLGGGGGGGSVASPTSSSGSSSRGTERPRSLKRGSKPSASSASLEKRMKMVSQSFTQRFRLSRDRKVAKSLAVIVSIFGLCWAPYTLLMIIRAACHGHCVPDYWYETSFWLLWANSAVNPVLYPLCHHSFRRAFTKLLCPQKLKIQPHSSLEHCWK

In [1], `Cc1cc2c(cc1S(N)(=O)=O)S(=O)(=O)CCC2` returned a half-maximal activity concentration (AC50) above 30 µM. On the same count and under the same terms, then `C[C@H](N[C@@H](CCc1ccccc1)C(=O)O)C(=O)N1Cc2ccccc2C[C@H]1C(=O)O`, with above 30 µM; and `O=C(O)[C@@H]1C[C@@H](O)CN1`, with above 30 µM; and `CC1(C)S[C@@H]2[C@H](/N=C/N3CCCCCC3)C(=O)N2[C@H]1C(=O)O` [AMDINOCILLIN], with above 30 µM. The compound `CC(=O)[C@]1(N)Cc2c(O)c3c(c(O)c2[C@@H](O[C@H]2C[C@H](O)[C@H](O)CO2)C1)C(=O)c1ccccc1C3=O` [AMRUBICIN] showed a concentration at half-maximal activity (AC50) in test [1] above 30 µM. On the same count and under the same terms, then `NC(=O)[C@@H]1CC[C@@H]2CN1C(=O)N2OS(=O)(=O)O` [AVIBACTAM], with above 30 µM; and `CC(=O)OC[C@H]1O[C@@H](n2ncc(=O)[nH]c2=O)[C@H](OC(C)=O)[C@@H]1OC(C)=O` [AZARIBINE], with above 30 µM; and `CC(C)(C)NC(=O)N[C@H](C(=O)N1C[C@H]2[C@@H]([C@H]1C(=O)NC(CC1CCC1)C(=O)C(N)=O)C2(C)C)C(C)(C)C` (stereo partly specified) [BOCEPREVIR], with above 30 µM.

`C=C1CC[C@H](O)C/C1=C/C=C1\CCC[C@]2(C)[C@@H]([C@H](C)CCCC(C)C)CC[C@@H]12` [CHOLECALCIFEROL] displayed a concentration at half-maximal activity (AC50) in [1] above 30 µM. Same read-out and setting: then `C[C@H](CCC(=O)O)[C@H]1CC[C@H]2[C@@H]3[C@H](O)C[C@@H]4C[C@H](O)CC[C@]4(C)[C@H]3C[C@H](O)[C@]12C` [CHOLIC ACID], with above 30 µM. In test [1], `Cc1ncc2c(c1O)COC2c1ccc(Cl)cc1` (stereo unspecified) [CICLETANINE] displayed an AC50 above 30 µM. The same measure, in the same setting: to `N#Cc1ccc(Oc2ccc3c(c2)COB3O)cc1` [CRISABOROLE] belongs above 30 µM; to `CC(=O)O[C@H]1Cc2ccccc2N(C(N)=O)c2ccccc21` [ESLICARBAZEPINE ACETATE], above 30 µM; to `CC(O)(P(=O)(O)O)P(=O)(O)O` [ETIDRONIC ACID], above 30 µM. As to `Cc1ccc(S(=O)(=O)NC(=O)NC2CCCCC2)cc1` [GLYCYCLAMIDE], in test [1], the AC50 is above 30 µM.

Consider `CN1CCCN(C(c2ccccc2)c2ccc(Cl)cc2)CC1` (stereo unspecified) [HOMOCHLORCYCLIZINE], for which the half-maximal activity concentration (AC50) in test [1] is above 30 µM.

`CC(=O)OCC(=O)[C@@]1(O)CC[C@H]2[C@@H]3CCC4=CC(=O)CC[C@]4(C)[C@H]3[C@@H](O)C[C@@]21C` [HYDROCORTISONE ACETATE] gave an AC50 in test [1] above 30 µM. `CC(COc1ccccc1)NC(C)C(O)c1ccc(O)cc1` (stereo unspecified) [ISOXSUPRINE] displayed an AC50 in [1] above 30 µM. Same read-out and setting: to `Cc1oc(=O)oc1COC(=O)[C@@H]1N2C(=O)[C@@H](NC(=O)[C@H](N)c3ccccc3)[C@H]2SC1(C)C` [LENAMPICILLIN] belongs above 30 µM; to `COc1ccc(OC)c(C(O)C(C)N)c1` (stereo unspecified) [METHOXAMINE], above 30 µM; to `CC1(CCN2CCCCC2)C(=O)CCc2ccccc21` (stereo unspecified) [NEPINALONE], above 30 µM. `COc1cccc(C(=O)CCN[C@@H](C)[C@H](O)c2ccccc2)c1` [OXYFEDRINE] displayed a concentration at half-maximal activity (AC50) in test [1] above 30 µM. On the same count and under the same terms, then `CC[N+](C)(CC)CCOC(=O)C(O)(c1ccccc1)C1CCCCC1` (stereo unspecified) [OXYPHENONIUM], with above 30 µM; and `C[C@@H]1C[C@H]2[C@@H]3C[C@H](F)C4=CC(=O)C=C[C@]4(C)[C@H]3[C@@H](O)C[C@]2(C)[C@@]1(O)C(=O)CO` [PARAMETHASONE], with above 30 µM; and `CCC[C@H](N[C@@H](C)C(=O)N1[C@H](C(=O)O)C[C@@H]2CCCC[C@@H]21)C(=O)OCC` [PERINDOPRIL], with above 30 µM. Same read-out and setting: then `NNCCc1ccccc1` [PHENELZINE], with above 30 µM; and `N[C@@H](Cc1ccccc1)C(=O)O` [PHENYLALANINE], with above 30 µM; and `CCCn1cnc2c1c(=O)n(CCCCC(C)=O)c(=O)n2C` [PROPENTOFYLLINE], with above 30 µM.

`COC(=O)[C@H]1[C@H]2C[C@@H]3c4[nH]c5cc(OC)ccc5c4CCN3C[C@H]2C[C@@H](OC(=O)c2cc(OC)c(OC)c(OC)c2)[C@@H]1OC` [RESERPINE]: the half-maximal activity concentration (AC50) in test [1] is above 30 µM; in test [2] it was above 10 µM; in [3], 11.7 µM; at Histamine H2 receptor it was above 30 µM; in test [4] it was above 30 µM; in test [5], above 30 µM. Besides, the half-maximal activity concentration (AC50) in test [6] is above 10 µM; on Mu-type opioid receptor, above 30 µM; in test [7] it was above 10 µM. On to `Clc1ccc(C(Cn2ccnc2)OCc2csc3c(Cl)cccc23)c(Cl)c1` (stereo unspecified) [SERTACONAZOLE], for which, in test [1], the concentration at half-maximal activity (AC50) is above 30 µM. In test [1], `CC(OCCN1CCCCCC1)(c1ccccc1)c1ccc(Cl)cc1` (stereo unspecified) [SETASTINE] returned an AC50 above 30 µM. The same measure, in the same setting: then `CCCSc1nc(N[C@@H]2C[C@H]2c2ccc(F)c(F)c2)c2nnn([C@@H]3C[C@H](OCCO)[C@@H](O)[C@H]3O)c2n1` [TICAGRELOR], with above 30 µM; and `c1ccc2c(SC3=NCCN3)c[nH]c2c1` [TINAZOLINE], with above 30 µM; and `Cc1ccc(C(=O)C(C)CN2CCCCC2)cc1` (stereo unspecified) [TOLPERISONE], with above 30 µM. `CCOC(=O)c1c(CSc2ccccc2)n(C)c2cc(Br)c(O)c(CN(C)C)c12` [UMIFENOVIR]: the half-maximal activity concentration (AC50) in [2] is above 30 µM; in test [3], above 30 µM; on Histamine H2 receptor, above 30 µM; in test [4] it was 12 µM; in [5], above 30 µM; in [6] it was above 30 µM. The half-maximal activity concentration (AC50) (on Histamine H3 receptor; at Mu-type opioid receptor; in test [7]) was above 30 µM throughout.
